Assay [1] has as its target T1, HiBit-BRG1 fusion protein in stable HeLa cell line expressing HiBit-BRG1 and LgBit (Homo sapiens, UniProt P51532).
T1 construct: expressed in transfected cells
Description: HiBiT-BRG1 cell-based degradation assay (Nano-Glo HiBiT, 24 h). The following applies: HeLa HiBit-BRG1/LgBit cells; for DC50: read-out: BRMG1 HiBit Degradation IC50; for Dmax: top dose 30 μM, read-out: BRG1 HiBit Degradation Maximum (%). The method in brief: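 Stable HeLa line co-expressing HiBiT-BRG1 and LgBiT, compound-treated 24 h; luminescence read after Nano-Glo HiBiT lytic reagent. % degradation normalised between DMSO (high control) and 2 μM reference BRM/BRG1 degrader (low control).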
For orientation: HiBiT is a short tag that completes a luciferase, so light tracks the accessible tagged protein.

The target of assay [2] is T2, HiBiT-BRM fusion protein in stable HeLa cell line (Homo sapiens, UniProt P51531).
T2 construct: expressed in transfected cells
T2 sequence (P51531 whole entry, the tested form may be a part): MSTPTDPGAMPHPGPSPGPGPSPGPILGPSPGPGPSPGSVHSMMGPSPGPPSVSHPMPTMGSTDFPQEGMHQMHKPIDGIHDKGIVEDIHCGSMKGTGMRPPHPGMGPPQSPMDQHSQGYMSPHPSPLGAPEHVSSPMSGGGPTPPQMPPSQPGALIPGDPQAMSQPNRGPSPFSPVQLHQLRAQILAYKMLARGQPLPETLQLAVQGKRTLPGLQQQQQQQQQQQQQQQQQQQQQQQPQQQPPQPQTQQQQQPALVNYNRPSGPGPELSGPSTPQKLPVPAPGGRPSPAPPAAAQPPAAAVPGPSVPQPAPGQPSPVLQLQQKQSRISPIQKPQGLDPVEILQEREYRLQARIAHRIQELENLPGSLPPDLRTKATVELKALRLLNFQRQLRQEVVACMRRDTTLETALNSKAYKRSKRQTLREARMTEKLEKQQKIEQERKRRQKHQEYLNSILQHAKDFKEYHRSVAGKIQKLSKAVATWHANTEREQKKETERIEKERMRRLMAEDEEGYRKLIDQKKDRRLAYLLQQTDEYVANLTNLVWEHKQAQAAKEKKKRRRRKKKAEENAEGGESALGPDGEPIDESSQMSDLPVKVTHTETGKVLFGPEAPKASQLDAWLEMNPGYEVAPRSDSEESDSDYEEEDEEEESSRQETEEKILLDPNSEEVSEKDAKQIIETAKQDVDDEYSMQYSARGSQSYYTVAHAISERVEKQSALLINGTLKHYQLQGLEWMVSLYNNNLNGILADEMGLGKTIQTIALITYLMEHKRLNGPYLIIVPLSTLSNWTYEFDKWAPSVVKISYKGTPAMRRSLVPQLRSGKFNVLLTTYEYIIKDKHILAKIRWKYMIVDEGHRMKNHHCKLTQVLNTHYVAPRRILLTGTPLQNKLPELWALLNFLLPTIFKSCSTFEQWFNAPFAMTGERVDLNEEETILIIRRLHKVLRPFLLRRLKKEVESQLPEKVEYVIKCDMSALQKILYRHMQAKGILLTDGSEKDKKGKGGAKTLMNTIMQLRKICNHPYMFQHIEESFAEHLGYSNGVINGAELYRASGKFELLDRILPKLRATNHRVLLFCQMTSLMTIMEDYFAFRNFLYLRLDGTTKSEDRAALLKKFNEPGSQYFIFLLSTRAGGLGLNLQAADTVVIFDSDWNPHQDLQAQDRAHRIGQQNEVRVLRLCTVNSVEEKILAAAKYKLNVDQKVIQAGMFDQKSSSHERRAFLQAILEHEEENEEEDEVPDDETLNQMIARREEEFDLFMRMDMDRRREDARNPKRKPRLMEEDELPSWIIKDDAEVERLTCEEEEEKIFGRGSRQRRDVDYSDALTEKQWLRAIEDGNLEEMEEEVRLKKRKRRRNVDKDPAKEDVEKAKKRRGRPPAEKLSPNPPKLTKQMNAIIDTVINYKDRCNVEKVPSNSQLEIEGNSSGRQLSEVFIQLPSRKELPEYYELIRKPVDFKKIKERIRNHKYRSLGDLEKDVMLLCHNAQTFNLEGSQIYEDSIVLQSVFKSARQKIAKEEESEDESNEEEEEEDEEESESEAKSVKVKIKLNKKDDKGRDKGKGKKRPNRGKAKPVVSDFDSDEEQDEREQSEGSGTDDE
Description: HiBiT-BRM cell-based degradation assay (Nano-Glo HiBiT Lytic Detection, 24 h). Further details: DC50: scale not given here. The following applies: HeLa HiBiT-BRM cells; for DC50: read-out: BRM HiBit Degradation IC50; for BRM HiBit Degradation Maximum (%): top dose 30 μM. In a few lines:
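Luminescence from HiBiT/LgBiT complementation after lysis reports remaining HiBiT-BRM in stable HeLa cells exposed to compound for 24 h. Dosing used 3-fold serial dilutions, 10 points, 30 μM top final concentration. DMSO and a 2 μM BRM/BRG1 degrader standard defined 0% and 100% degradation.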

Some results are limits rather than exact numbers.

The text below walks through data of US20260193264A1, “BENZOYPARAZINE PYRAZINES AND THEIR USES” (FOGHORN THERAPEUTICS INC., priority 2022, published 2026).

T1 sequence (P51532 whole entry, the tested form may be a part): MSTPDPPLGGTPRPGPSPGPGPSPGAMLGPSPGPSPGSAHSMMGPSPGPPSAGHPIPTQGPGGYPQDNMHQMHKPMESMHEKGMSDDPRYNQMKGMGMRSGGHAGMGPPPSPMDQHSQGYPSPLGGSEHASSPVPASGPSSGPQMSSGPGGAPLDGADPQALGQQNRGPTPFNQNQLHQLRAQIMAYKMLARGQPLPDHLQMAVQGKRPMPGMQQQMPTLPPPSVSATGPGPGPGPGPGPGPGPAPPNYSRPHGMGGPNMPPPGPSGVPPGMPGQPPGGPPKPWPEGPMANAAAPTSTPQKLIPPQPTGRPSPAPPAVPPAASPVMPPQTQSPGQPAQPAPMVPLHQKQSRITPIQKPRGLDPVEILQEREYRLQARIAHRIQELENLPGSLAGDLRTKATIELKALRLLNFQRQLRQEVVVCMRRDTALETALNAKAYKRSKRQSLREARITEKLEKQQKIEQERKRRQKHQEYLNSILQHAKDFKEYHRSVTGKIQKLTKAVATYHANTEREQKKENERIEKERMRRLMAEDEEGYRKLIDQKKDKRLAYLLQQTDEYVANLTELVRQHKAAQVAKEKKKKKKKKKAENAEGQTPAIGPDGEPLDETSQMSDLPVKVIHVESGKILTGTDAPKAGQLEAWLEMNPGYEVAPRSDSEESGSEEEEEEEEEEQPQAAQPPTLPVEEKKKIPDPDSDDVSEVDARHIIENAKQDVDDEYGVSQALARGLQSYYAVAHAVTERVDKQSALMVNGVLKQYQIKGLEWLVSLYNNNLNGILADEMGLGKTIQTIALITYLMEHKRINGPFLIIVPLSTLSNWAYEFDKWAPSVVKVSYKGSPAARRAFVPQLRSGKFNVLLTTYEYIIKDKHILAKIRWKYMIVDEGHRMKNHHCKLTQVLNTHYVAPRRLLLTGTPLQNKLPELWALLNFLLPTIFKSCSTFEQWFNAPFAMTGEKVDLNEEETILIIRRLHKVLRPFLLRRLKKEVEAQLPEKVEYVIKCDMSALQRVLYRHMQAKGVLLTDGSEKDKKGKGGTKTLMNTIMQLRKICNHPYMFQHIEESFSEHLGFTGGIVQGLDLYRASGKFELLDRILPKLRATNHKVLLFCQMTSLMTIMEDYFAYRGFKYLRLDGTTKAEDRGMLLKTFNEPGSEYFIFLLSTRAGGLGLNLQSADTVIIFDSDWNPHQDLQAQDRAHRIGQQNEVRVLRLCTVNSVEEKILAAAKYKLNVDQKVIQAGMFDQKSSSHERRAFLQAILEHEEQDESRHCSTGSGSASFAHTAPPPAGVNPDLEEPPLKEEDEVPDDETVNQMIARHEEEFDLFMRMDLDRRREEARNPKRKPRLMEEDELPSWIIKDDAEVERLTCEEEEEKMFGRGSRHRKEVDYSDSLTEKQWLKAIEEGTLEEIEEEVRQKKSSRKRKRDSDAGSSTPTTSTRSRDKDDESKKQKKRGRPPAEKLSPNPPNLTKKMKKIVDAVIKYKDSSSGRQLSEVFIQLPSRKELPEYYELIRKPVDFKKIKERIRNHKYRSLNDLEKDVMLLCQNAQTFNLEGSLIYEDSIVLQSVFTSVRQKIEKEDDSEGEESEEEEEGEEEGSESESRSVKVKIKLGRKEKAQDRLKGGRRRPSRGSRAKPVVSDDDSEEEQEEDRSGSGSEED

As for `Cc1ncsc1-c1ccc([C@H](C)NC(=O)[C@@H]2C[C@@H](O)CN2C(=O)[C@@H](c2cc(N3CCN([C@H]4CCN(Cc5ccc6nnc(-c7ccccc7O)cc6c5)CC4(F)F)CC3)no2)C(C)C)cc1` [Compound 137, (2S,4R)-1-((R)-2-(3-(4-((S)-3,3-difluoro-1-((3-(2-hydroxyphenyl)cinnolin-6-yl)methyl)piperidin-4-yl)piperazin-1-yl)isoxazol-5-yl)-3-methylbutanoyl)-4-hydroxy-N-((S)-1-(4-(4-methylthiazol-5-yl)phenyl)ethyl)pyrrolidine-2-carboxamide], in assay [1], the DC50 was less than 0.01 µM and the Dmax was greater than 75%. In addition, in assay [2], the DC50 is less than 0.01 µM and the “BRM HiBit Degradation Maximum (%)” value is listed as “A (“A” indicates maximum degradation ≥75%)”.
As to `Cc1ncsc1-c1ccc([C@H](C)NC(=O)[C@@H]2C[C@@H](O)CN2C(=O)[C@@H](c2cc(OCCN3CC(c4ccc5nnc(-c6ccccc6O)cc5c4)C3)no2)C(C)C)cc1` [Compound 1, (2S,4R)-4-hydroxy-1-[(2R)-2-[3-(2-{3-[3-(2-hydroxyphenyl)cinnolin-6-yl]azetidin-1-yl}ethoxy)-1,2-oxazol-5-yl]-3-methylbutanoyl]-N-[(1S)-1-[4-(4-methyl-1,3-thiazol-5-yl)phenyl]ethyl]pyrrolidine-2-carboxamide], in assay [1], the Dmax is less than 50%. For the same molecule, in assay [2], the DC50 is greater than 0.01 µM and the “BRM HiBit Degradation Maximum (%)” value was “B (“B” indicates maximum degradation ≥50%)”.
Regarding `Cc1ncsc1-c1ccc([C@H](C)NC(=O)[C@@H]2C[C@@H](O)CN2C(=O)[C@H](C(C)C)n2cc(N3CC4(CC(c5ccc6cc(-c7ccccc7O)nnc6c5)C4)C3)nn2)cc1` [Compound 212, (2S,4R)-4-hydroxy-1-((S)-2-(4-(6-(3-(2-hydroxyphenyl)cinnolin-7-yl)-2-azaspiro[3.3]heptan-2-yl)-1H-1,2,3-triazol-1-yl)-3-methylbutanoyl)-N-((S)-1-(4-(4-methylthiazol-5-yl)phenyl)ethyl)pyrrolidine-2-carboxamide], in assay [1], the DC50 was greater than 0.01 µM and the Dmax is greater than 75%. Besides, in assay [2], the DC50 was less than 0.01 µM and the “BRM HiBit Degradation Maximum (%)” value is “A (“A” indicates maximum degradation ≥75%)”.
For the molecule `Cc1ncsc1-c1ccc([C@H](C)NC(=O)[C@@H]2C[C@@H](O)CN2C(=O)[C@@H](c2cc(N3CC4(CN(Cc5ccc6nnc(-c7ccccc7O)cc6c5)C4)C3)no2)C(C)C)cc1` [Compound 245, (2S,4R)-4-hydroxy-1-((R)-2-(3-(6-((3-(2-hydroxyphenyl)cinnolin-6-yl)methyl)-2,6-diazaspiro[3.3]heptan-2-yl)isoxazol-5-yl)-3-methylbutanoyl)-N-((S)-1-(4-(4-methylthiazol-5-yl)phenyl)ethyl)pyrrolidine-2-carboxamide], the Dmax in assay [1] was less than 50%. For the same molecule, in assay [2], the DC50 was greater than 0.01 µM and the “BRM HiBit Degradation Maximum (%)” value is recorded as “B (“B” indicates maximum degradation ≥50%)”.
The like results for `Cc1ncsc1-c1ccc([C@H](C)NC(=O)[C@@H]2C[C@@H](O)CN2C(=O)[C@@H](c2cc(N3CCC(N4CC5(CN(Cc6ccc7cc(-c8ccccc8O)nnc7c6)C5)C4)CC3)no2)C(C)C)cc1` [Compound 244, (2S,4R)-4-hydroxy-1-((R)-2-(3-(4-(6-((3-(2-hydroxyphenyl)cinnolin-7-yl)methyl)-2,6-diazaspiro[3.3]heptan-2-yl)piperidin-1-yl)isoxazol-5-yl)-3-methylbutanoyl)-N-((S)-1-(4-(4-methylthiazol-5-yl)phenyl)ethyl)pyrrolidine-2-carboxamide] were, in that order, less than 50%, greater than 0.1 µM and “B (“B” indicates maximum degradation ≥50%)”.
Turning to `Cc1ncsc1-c1ccc([C@H](C)NC(=O)[C@@H]2C[C@@H](O)CN2C(=O)[C@@H](c2cc(N3CCN([C@@H]4CCN(Cc5ccc6nnc(-c7ccccc7O)cc6c5)CC4(F)F)CC3)no2)C(C)C)cc1` [Compound 136, (2S,4R)-1-((R)-2-(3-(4-((R)-3,3-difluoro-1-((3-(2-hydroxyphenyl)cinnolin-6-yl)methyl)piperidin-4-yl)piperazin-1-yl)isoxazol-5-yl)-3-methylbutanoyl)-4-hydroxy-N-((S)-1-(4-(4-methylthiazol-5-yl)phenyl)ethyl)pyrrolidine-2-carboxamide], in assay [1], the DC50 is less than 0.01 µM and the Dmax is greater than 75%. In assay [2], the DC50 is less than 0.01 µM and the “BRM HiBit Degradation Maximum (%)” value is listed as “A (“A” indicates maximum degradation ≥75%)”.
Take `Cc1ncsc1-c1ccc([C@H](C)NC(=O)[C@@H]2C[C@@H](O)CN2C(=O)[C@H](c2cc(-c3cnc(N4CC(c5ccc6nnc(-c7ccccc7O)cc6c5Cl)C4)nc3)no2)C(C)C)cc1` [Compound 43]: the Dmax in assay [1] is less than 50%. Moreover, in assay [2], the DC50 is greater than 0.1 µM and the “BRM HiBit Degradation Maximum (%)” value is “A (“A” indicates maximum degradation ≥75%)”.
For the molecule `Cc1ncsc1-c1ccc([C@H](C)NC(=O)[C@@H]2C[C@@H](O)CN2C(=O)[C@H](C(C)C)n2cc(C3CC4(C3)CN(c3ccc5cc(-c6ccccc6O)nnc5c3)C4)nn2)cc1` [Compound 186, (2S,4R)-4-hydroxy-1-[(2S)-2-(4-{2-[3-(2-hydroxyphenyl)cinnolin-7-yl]-2-azaspiro[3.3]heptan-6-yl}-1,2,3-triazol-1-yl)-3-methylbutanoyl]-N-[(1S)-1-[4-(4-methyl-1,3-thiazol-5-yl)phenyl]ethyl]pyrrolidine-2-carboxamide], in assay [1], the DC50 was less than 0.01 µM and the Dmax is greater than 75%. Besides, in assay [2], the DC50 was less than 0.01 µM and the “BRM HiBit Degradation Maximum (%)” value is on record as “A (“A” indicates maximum degradation ≥75%)”.
With `Cc1ncsc1-c1ccc([C@H](C)NC(=O)[C@@H]2C[C@@H](O)CN2C(=O)[C@@H](c2ccnc(N3CC4(CN(c5ccc6nnc(-c7ccccc7O)cc6c5)C4)C3)c2)C(C)C)cc1` [Compound 160, (2S,4R)-4-hydroxy-1-[(2R)-2-(2-{6-[3-(2-hydroxyphenyl)cinnolin-6-yl]-2,6-diazaspiro[3.3]heptan-2-yl}pyridin-4-yl)-3-methylbutanoyl]-N-[(1S)-1-[4-(4-methyl-1,3-thiazol-5-yl)phenyl]ethyl]pyrrolidine-2-carboxamide], the Dmax in assay [1] is less than 50%. Also, the “BRM HiBit Degradation Maximum (%)” value in assay [2] is “B (“B” indicates maximum degradation ≥50%)”.
Turning to `Cc1ncsc1-c1ccc([C@H](C)NC(=O)[C@@H]2C[C@@H](O)CN2C(=O)[C@@H](c2cc(N3CCCC4(CN(c5ccc6cc(-c7ccccc7O)nnc6c5)C4)C3)no2)C(C)C)cc1` [Compound 154, (2S,4R)-4-hydroxy-1-((R)-2-(3-(2-(3-(2-hydroxyphenyl)cinnolin-7-yl)-2,6-diazaspiro [3.5]nonan-6-yl)isoxazol-5-yl)-3-methylbutanoyl)-N-((S)-1-(4-(4-methylthiazol-5-yl)phenyl)ethyl)pyrrolidine-2-carboxamide], in assay [1], the DC50 is less than 0.01 µM and the Dmax was greater than 75%. Besides, in assay [2], the DC50 is less than 0.01 µM and the “BRM HiBit Degradation Maximum (%)” value is “A (“A” indicates maximum degradation ≥75%)”.
As to `CC(C)C(C(=O)N1C[C@H](O)C[C@H]1C(=O)NCC12CC(C1)C2)c1cc(N2CC3(CN(c4ccc5cc(-c6ccccc6O)nnc5c4)C3)C2)no1` (stereo partly drawn) [Compound 119, (2S,4R)-N-(bicyclo[1.1.1]pentan-1-ylmethyl)-4-hydroxy-1-(2-(3-(6-(3-(2-hydroxyphenyl)cinnolin-7-yl)-2,6-diazaspiro[3.3]heptan-2-yl)isoxazol-5-yl)-3-methylbutanoyl)pyrrolidine-2-carboxamide], the Dmax in assay [1] was less than 50%. In addition, in assay [2], the DC50 is greater than 0.01 µM and the “BRM HiBit Degradation Maximum (%)” value was “A (“A” indicates maximum degradation ≥75%)”.
In the case of `Cc1ncsc1-c1ccc([C@H](C)NC(=O)[C@@H]2C[C@@H](O)CN2C(=O)C(C(C)C)n2cc(N3CCC34CN(c3ccc5nnc(-c6ccccc6O)cc5c3)C4)nn2)cc1` (some centres unmarked) [Compound 276], in assay [1], the DC50 is greater than 0.01 µM and the Dmax is greater than 75%. Moreover, in assay [2], the “BRM HiBit Degradation Maximum (%)” value is given as “C (“C” indicates maximum degradation <50%)”.
Regarding `Cc1ncsc1-c1ccc([C@H](C)NC(=O)[C@@H]2C[C@@H](O)CN2C(=O)[C@H](C(C)C)n2cc(-c3ccc4nnc(-c5ccccc5O)cc4c3Cl)nn2)cc1` [Compound 190, (2S,4R)-1-((S)-2-(4-(5-chloro-3-(2-hydroxyphenyl)cinnolin-6-yl)-1H-1,2,3-triazol-1-yl)-3-methylbutanoyl)-4-hydroxy-N-((S)-1-(4-(4-methylthiazol-5-yl)phenyl)ethyl)pyrrolidine-2-carboxamide], the Dmax in assay [1] is less than 50%. In addition, in assay [2], the DC50 was less than 0.01 µM and the “BRM HiBit Degradation Maximum (%)” value is on record as “A (“A” indicates maximum degradation ≥75%)”.
Consider `Cc1ncsc1-c1ccc([C@H](C)NC(=O)[C@@H]2C[C@@H](O)CN2C(=O)[C@@H](c2cc(N3CC4(CC(Oc5ccc6cc(-c7ccccc7O)nnc6c5)C4)C3)no2)C(C)C)cc1` [Compound 84, (2S,4R)-4-hydroxy-1-((R)-2-(3-(6-((3-(2-hydroxyphenyl)cinnolin-7-yl)oxy)-2-azaspiro[3.3]heptan-2-yl)isoxazol-5-yl)-3-methylbutanoyl)-N-((S)-1-(4-(4-methylthiazol-5-yl)phenyl)ethyl)pyrrolidine-2-carboxamide], for which, in assay [1], the DC50 was greater than 0.01 µM and the Dmax is greater than 50%. In assay [2], the DC50 was less than 0.01 µM and the “BRM HiBit Degradation Maximum (%)” value is given as “A (“A” indicates maximum degradation ≥75%)”.
